Reference: paper PMC7615311 (Science (New York, N.Y.), 2023)

Columns and labels:
A549 lung cancer cells = experiment: decryptM phosphoproteome profiling in A549 cells; format: cell-based, human
SK-BR-3 cells = experiment: decryptM phosphoproteome profiling in SK-BR-3 cells; format: cell-based, human
MDA-MB-175 cells = experiment: decryptM phosphoproteome profiling in MDA-MB-175 cells; format: cell-based, human
BT-474 cells = experiment: decryptM phosphoproteome profiling in BT-474 cells; format: cell-based, human
[1] = test system: K562 chronic myelogenous leukemia cells; experiment: decryptM phosphoproteome profiling in K562 cells; format: cell-based, human; settings: for number of regulated phosphopeptides: K562, 30 min drug treatment
[2] = test system: KYSE-520 esophageal squamous cell carcinoma cell line; experiment: decryptM phosphoproteome profiling in KYSE-520 cells; format: cell-based, human; settings: KYSE-520, 30 min
HeLa cells [3] = experiment: decryptM protein acetylation profiling in HeLa cells; format: cell-based, human
HeLa cells [4] = experiment: decryptM phosphoproteome profiling in HeLa cells; format: cell-based, human
CBP and p300 = experiment: decryptM; format: cell-based, human; settings: read-out: EC50 of inhibition of (auto-)acetylation sites on CBP and p300; HeLa
SNRNP40 = experiment: decryptM, acetylation of SNRNP40 in HeLa cells; format: cell-based, human; settings: read-out: EC50 of SNRNP40 acetylation site
SU-DHL-4 cells [5] = experiment: FACS analysis of cytotoxicity; format: cell-based, human; settings: SU-DHL-4, FACS
cortactin (CTTN) = experiment: decryptM, acetylation of HDAC6 substrate cortactin in HeLa cells; format: cell-based, human; settings: within the tested dose range
SU-DHL-4 cells [6] = format: cell-based, human; settings: SU-DHL-4, live cell imaging
MDA-MB-175 = experiment: growth reduction, MDA-MB-175; format: cell-based; settings: Homo sapiens, read-out: reduced growth
AKT1S1 = experiment: decryptM, pT246 on AKT1S1 in SK-BR-3 cells; format: cell-based; settings: Homo sapiens, SK-BR-3, read-out: potency of inhibition of pT246 on AKT1S1
SHC1 = experiment: decryptM, pY427 on SHC1 in SK-BR-3 cells; format: cell-based; settings: Homo sapiens, SK-BR-3, read-out: potency of inhibition of pY427 on SHC1
BT-474 = experiment: growth reduction, BT-474; format: cell-based; settings: Homo sapiens, BT-474, read-out: reduced growth
SK-BR-3 = experiment: growth reduction, SK-BR-3; format: cell-based; settings: Homo sapiens, SK-BR-3, read-out: reduced growth
ATR = ATR (Homo sapiens, UniProt Q13535); experiment: Kinobeads assay, ATR; format: binding
[7] = test system: Ramos (Burkitt's Lymphoma); experiment: viability assay, Ramos; format: cell-based, human
SU-DHL-4 cells [8] = experiment: two-dimensional decryptM phosphoproteome analysis in SU-DHL-4; format: cell-based, human; settings: dose-response at eight time points between 0 min and 24 h
MKI67 = experiment: decryptM, phosphorylation of MKI67 in SU-DHL-4; format: cell-based, human
[9] = test system: SU-DHL-4 (B-cell lymphoma); experiment: viability assay, SU-DHL-4; format: cell-based, human
RFTN1 = experiment: decryptM, RFTN1 phosphorylation at S467 in SU-DHL-4; format: cell-based, human
ARH-77 cells = experiment: two-dimensional decryptM phosphoproteome analysis in ARH-77; format: cell-based, human; settings: dose-response at eight time points between 0 min and 24 h
[10] = test system: ARH-77 plasma leukemia line; experiment: viability assay, ARH-77; format: cell-based, human
Ramos cells = experiment: two-dimensional decryptM phosphoproteome analysis in Ramos; format: cell-based, human; settings: dose-response at eight time points between 0 min and 24 h
SYK = experiment: decryptM, phosphorylation of SYK in SU-DHL-4; format: cell-based, human

ATR, sequence (Q13535 whole entry): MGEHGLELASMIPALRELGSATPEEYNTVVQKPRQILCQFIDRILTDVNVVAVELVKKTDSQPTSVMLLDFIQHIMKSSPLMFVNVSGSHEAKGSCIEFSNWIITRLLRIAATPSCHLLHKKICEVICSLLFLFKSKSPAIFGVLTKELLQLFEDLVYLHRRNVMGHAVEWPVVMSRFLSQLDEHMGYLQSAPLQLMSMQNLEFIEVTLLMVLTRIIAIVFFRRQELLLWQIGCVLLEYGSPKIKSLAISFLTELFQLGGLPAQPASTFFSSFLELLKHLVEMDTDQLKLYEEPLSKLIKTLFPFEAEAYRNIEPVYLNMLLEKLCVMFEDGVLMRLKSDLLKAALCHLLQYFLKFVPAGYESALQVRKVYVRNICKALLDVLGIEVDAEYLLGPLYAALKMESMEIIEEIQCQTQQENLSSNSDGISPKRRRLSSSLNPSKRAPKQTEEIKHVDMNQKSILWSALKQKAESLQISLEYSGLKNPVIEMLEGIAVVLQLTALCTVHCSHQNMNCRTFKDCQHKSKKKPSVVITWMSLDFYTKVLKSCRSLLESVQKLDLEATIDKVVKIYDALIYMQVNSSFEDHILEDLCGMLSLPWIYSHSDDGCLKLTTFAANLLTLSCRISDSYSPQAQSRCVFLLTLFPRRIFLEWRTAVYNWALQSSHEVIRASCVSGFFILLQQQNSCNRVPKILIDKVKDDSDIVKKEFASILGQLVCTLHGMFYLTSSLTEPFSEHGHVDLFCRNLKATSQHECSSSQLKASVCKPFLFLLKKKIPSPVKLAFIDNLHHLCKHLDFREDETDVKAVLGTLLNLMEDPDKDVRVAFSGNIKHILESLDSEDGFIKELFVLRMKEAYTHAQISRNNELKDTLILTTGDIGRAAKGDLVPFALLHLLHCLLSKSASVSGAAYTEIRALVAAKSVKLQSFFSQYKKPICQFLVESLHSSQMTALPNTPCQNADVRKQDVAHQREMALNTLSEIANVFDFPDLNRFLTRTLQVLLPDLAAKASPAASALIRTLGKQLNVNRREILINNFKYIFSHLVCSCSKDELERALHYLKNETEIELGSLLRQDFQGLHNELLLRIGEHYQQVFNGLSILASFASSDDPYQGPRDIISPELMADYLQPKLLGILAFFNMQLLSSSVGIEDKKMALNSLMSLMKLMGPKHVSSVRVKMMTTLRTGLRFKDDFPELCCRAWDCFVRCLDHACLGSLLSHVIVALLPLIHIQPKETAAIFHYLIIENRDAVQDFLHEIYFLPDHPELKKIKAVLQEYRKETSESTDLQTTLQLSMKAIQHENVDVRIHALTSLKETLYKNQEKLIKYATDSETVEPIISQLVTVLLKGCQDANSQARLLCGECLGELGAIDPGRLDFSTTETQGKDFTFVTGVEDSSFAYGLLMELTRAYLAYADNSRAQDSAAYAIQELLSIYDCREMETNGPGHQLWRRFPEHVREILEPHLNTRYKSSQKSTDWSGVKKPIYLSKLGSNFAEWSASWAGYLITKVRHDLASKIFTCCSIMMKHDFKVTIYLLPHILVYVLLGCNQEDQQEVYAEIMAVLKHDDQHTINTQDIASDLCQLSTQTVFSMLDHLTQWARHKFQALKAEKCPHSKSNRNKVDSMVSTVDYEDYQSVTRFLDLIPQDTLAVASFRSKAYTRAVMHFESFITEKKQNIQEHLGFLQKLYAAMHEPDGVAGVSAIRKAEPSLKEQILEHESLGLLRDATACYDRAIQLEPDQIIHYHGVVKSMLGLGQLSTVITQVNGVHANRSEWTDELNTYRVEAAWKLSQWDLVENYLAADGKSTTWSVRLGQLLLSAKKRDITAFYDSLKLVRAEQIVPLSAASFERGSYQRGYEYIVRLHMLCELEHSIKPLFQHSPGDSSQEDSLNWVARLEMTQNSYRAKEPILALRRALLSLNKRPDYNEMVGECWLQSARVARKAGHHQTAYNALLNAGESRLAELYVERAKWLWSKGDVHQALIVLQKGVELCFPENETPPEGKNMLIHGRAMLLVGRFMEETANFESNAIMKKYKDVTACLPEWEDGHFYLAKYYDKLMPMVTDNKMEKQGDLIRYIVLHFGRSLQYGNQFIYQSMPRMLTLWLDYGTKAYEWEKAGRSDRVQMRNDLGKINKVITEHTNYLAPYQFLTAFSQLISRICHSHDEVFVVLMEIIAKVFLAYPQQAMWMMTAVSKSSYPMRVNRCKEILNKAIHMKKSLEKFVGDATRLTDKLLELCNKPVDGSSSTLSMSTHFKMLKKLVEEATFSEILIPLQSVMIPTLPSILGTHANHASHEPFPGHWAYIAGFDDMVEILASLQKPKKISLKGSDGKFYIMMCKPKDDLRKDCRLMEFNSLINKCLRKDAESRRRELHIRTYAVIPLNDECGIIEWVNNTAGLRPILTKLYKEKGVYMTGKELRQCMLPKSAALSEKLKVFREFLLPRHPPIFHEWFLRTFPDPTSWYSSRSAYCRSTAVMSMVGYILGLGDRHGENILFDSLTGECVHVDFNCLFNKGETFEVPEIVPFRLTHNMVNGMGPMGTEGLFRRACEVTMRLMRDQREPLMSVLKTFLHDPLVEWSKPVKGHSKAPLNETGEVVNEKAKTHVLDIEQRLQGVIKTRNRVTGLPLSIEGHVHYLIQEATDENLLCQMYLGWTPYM

Compound: Cn1cnc2c(F)c(Nc3ccc(Br)cc3Cl)c(C(=O)NOCCO)cc21 [selumetinib]
- ERK phosphorylation (A549 lung cancer cells): abrogated ERK phosphorylation
- phosphorylation of the AKT substrate BAD at S99 (A549 lung cancer cells): induced phosphorylation

Compound: pertuzumab: breast cancer therapeutic antibody blocking signaling by preventing HER2-HER3 dimerization
- number of regulated phosphopeptides (SK-BR-3 cells): ~ 30
- number of regulated phosphopeptides (MDA-MB-175 cells): ~ 150
- number of regulated phosphopeptides (BT-474 cells): ~ 150

Compound: Nc1ccn([C@@H]2O[C@H](CO)[C@@H](O)[C@@H]2O)c(=O)n1 [cytarabine]
- EC50 ([1]; Homo sapiens, K562, 0.5 h, read-out: EC50 of potently regulated phosphopeptides): < 100 nM
- number of regulated phosphopeptides [1]: 23

Compound: CC1(N)CCN(c2cnc(-c3cccc(Cl)c3Cl)c(N)n2)CC1 [SHP099]
- phosphorylation of the EGFR substrate GAB1 [2]: diminished in a dose-dependent fashion
- phosphorylation sites indicating EGFR activity [2]: does not inhibit

Compound: CNC(=O)Nc1ccc2c(c1)CC[C@@]21OC(=O)N(CC(=O)N(Cc2ccc(F)cc2)[C@@H](C)C(F)(F)F)C1=O [A485]
- number of downregulated acetylated peptides (HeLa cells [3]): 59
- impact on the phosphoproteome (HeLa cells [4]): did not have much impact
- EC50 (CBP and p300): 50 to 200 nM
- EC50 (SNRNP40): 50 nM

Compound: O=C1/C(=C/c2ccccc2)C(NC2CCCCC2)c2ccccc21 (stereo not shown) [BCI]
- cell killing by the drug alone (SU-DHL-4 cells [5]): effective in killing cells

Compound: C/C=C1\NC(=O)[C@H]2CSSCC/C=C/[C@H](CC(=O)N[C@H](C(C)C)C(=O)N2)OC(=O)[C@H](C(C)C)NC1=O [romidepsin]
- response of the phosphoproteome (HeLa cells [4]; after 16 hours): broad and potent response
- effect on CTTN acetylation (cortactin (CTTN)): no effect

Compound: CN[C@@H]1C[C@H]2O[C@@](C)([C@@H]1OC)n1c3ccccc3c3c4c(c5c6ccccc6n2c5c31)C(=O)NC4 [staurosporine]
- number of regulated phosphopeptides (A549 lung cancer cells): ~2500

Compound: O=C(CCCCCCC(=O)Nc1ccccc1)NO [vorinostat]
- effect on protein phosphorylation (HeLa cells [4]; within 4 hours): no noticeable effect

Compound: CC(=O)Nc1cccc(-n2c(=O)n(C3CC3)c(=O)c3c(Nc4ccc(I)cc4F)n(C)c(=O)c(C)c32)c1 [trametinib]
- effect of inhibitor pre-treatment on RTX-mediated cytotoxicity (SU-DHL-4 cells [6]): clear reduction of RTX-mediated cytotoxicity

Compound: C#Cc1cccc(Nc2ncnc3cc(OC)c(OCCCCCCC(=O)NO)cc23)c1 [CUDC-101]
- higher affinity for HDAC targets than for kinase targets in cells (HeLa cells [3]; acetylated vs phosphorylated peptides): 100 fold
- number of upregulated acetylated peptides (HeLa cells [3]; of the 1,133 measured acetylated peptides): 139
- effect on CTTN acetylation (cortactin (CTTN)): only at substantially higher concentrations

Compound: COc1cc(Nc2ncc(F)c(Nc3ccc4c(n3)N(COP(=O)(O)O)C(=O)C(C)(C)O4)n2)cc(OC)c1OC [fostamatinib]
- effect of combination on cytotoxic effect of RTX (SU-DHL-4 cells [5]): diminished the cytotoxic effect of RTX
- effect of inhibitor pre-treatment on RTX-mediated cytotoxicity (SU-DHL-4 cells [6]): clear reduction of RTX-mediated cytotoxicity

Compound: CS(=O)(=O)CCNCc1ccc(-c2ccc3ncnc(Nc4ccc(OCc5cccc(F)c5)c(Cl)c4)c3c2)o1 [Lapatinib]
- number of regulated phosphopeptides (SK-BR-3 cells): five
- EC50 (MDA-MB-175): 695 nM
- EC50 (AKT1S1): 11 nM
- EC50 (SHC1): 18 nM
- number of regulated phosphopeptides (MDA-MB-175 cells): hundreds
- EC50 (BT-474): 158 nM
- number of regulated phosphopeptides (BT-474 cells): hundreds
- EC50 (SK-BR-3): 234 nM

Compound: Cn1c(=O)n(-c2ccc(C(C)(C)C#N)cc2)c2c3cc(-c4cnc5ccccc5c4)ccc3ncc21 [Dactolisib]
- Kd (ATR): 91 nM

Compound: RTX: antibody for treatment of B-cell malignancies targeting MS4A1 (CD20)
- sensitivity in viability assay [7]: sensitive
- phosphoproteome response (SU-DHL-4 cells [8]): massive responses
- downregulation of phosphorylation on the proliferation marker MKI67 (MKI67): > 10 x
- sensitivity in viability assay [9]: sensitive
- increase of RFTN1 phosphorylation at S467 (RFTN1; SU-DHL-4, within 2 min): 10 fold
- increase of RFTN1 phosphorylation at S467 (RFTN1; SU-DHL-4, within 5 min): 30 fold
- phosphoproteome response (ARH-77 cells): silent
- sensitivity in viability assay [10]: insensitive
- phosphoproteome response (Ramos cells): massive responses
- upregulation of phosphorylation of SYK (SYK): > 10 fold

Compound: NC1(c2ccc(-c3nc4ccn5c(=O)[nH]nc5c4cc3-c3ccccc3)cc2)CCC1 [MK-2206]
- ERK1 activity via phosphorylation at Y187 (A549 lung cancer cells): induced ERK1 activity
- phosphorylation of the AKT substrates AKT1S1 (T2469) and GSK3B (S9) (A549 lung cancer cells): reduced phosphorylation

Compound: CC(=O)O[C@H]1C(=O)[C@@]2(C)[C@H]([C@H](OC(=O)c3ccccc3)[C@]3(O)C[C@H](OC(=O)[C@H](O)[C@@H](NC(=O)c4ccccc4)c4ccccc4)C(C)=C1C3(C)C)[C@]1(OC(C)=O)CO[C@@H]1C[C@@H]2O [paclitaxel]
- number of regulated phosphopeptides [1]: 7
